Measurements: the supplement of paper PMC11451515

System: SEM cells
Experiment: cell viability relative to DMSO control; higher = less cytotoxic
Settings: 48 h
In short: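 Viability, reported as a per-plate percentage of DMSO wells with cell-free wells as background, came from CellTiter-Glo One luminescence. Reading took place after 48 h at 37°C. Before that, NOMO1 or SEM (500 cells/well) or P12-Ichikawa (1000 cells/well) leukemia cells, adapted for at least four passages in each medium, were seeded in 1536-well plates (5 μl) and pin-dosed with library compounds in DMSO, 47 μM to 0.79 nM over 11 threefold points.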

[1] = HPLM + 10% dialyzed FBS, 0.000781 µM
[2] = HPLM + 10% dialyzed FBS, 0.00234 µM
[3] = HPLM + 10% dialyzed FBS, 0.00702 µM
[4] = HPLM + 10% dialyzed FBS, 0.0211 µM
[5] = HPLM + 10% dialyzed FBS, 0.0632 µM
[6] = HPLM + 10% dialyzed FBS, 0.19 µM
[7] = HPLM + 10% dialyzed FBS, 0.569 µM
[8] = HPLM + 10% dialyzed FBS, 1.71 µM
[9] = HPLM + 10% dialyzed FBS, 5.12 µM
[10] = HPLM + 10% dialyzed FBS, 15.4 µM
[11] = HPLM + 10% dialyzed FBS, 46.1 µM
[12] = RPMI 5 mM glucose + 10% FBS, 0.000781 µM
[13] = RPMI 5 mM glucose + 10% FBS, 0.00234 µM
[14] = RPMI 5 mM glucose + 10% FBS, 0.00702 µM
[15] = RPMI 5 mM glucose + 10% FBS, 0.0211 µM
[16] = RPMI 5 mM glucose + 10% FBS, 0.0632 µM
[17] = RPMI 5 mM glucose + 10% FBS, 0.19 µM
[18] = RPMI 5 mM glucose + 10% FBS, 0.569 µM
[19] = RPMI 5 mM glucose + 10% FBS, 1.71 µM
[20] = RPMI 5 mM glucose + 10% FBS, 5.12 µM
[21] = RPMI 5 mM glucose + 10% FBS, 15.4 µM
[22] = RPMI 5 mM glucose + 10% FBS, 46.1 µM
[23] = RPMI 5 mM glucose + 10% dialyzed FBS, 0.000781 µM
[24] = RPMI 5 mM glucose + 10% dialyzed FBS, 0.00234 µM
[25] = RPMI 5 mM glucose + 10% dialyzed FBS, 0.00702 µM
[26] = RPMI 5 mM glucose + 10% dialyzed FBS, 0.0211 µM
[27] = RPMI 5 mM glucose + 10% dialyzed FBS, 0.0632 µM
[28] = RPMI 5 mM glucose + 10% dialyzed FBS, 0.19 µM
[29] = RPMI 5 mM glucose + 10% dialyzed FBS, 0.569 µM
[30] = RPMI 5 mM glucose + 10% dialyzed FBS, 1.71 µM
[31] = RPMI 5 mM glucose + 10% dialyzed FBS, 5.12 µM
[32] = RPMI 5 mM glucose + 10% dialyzed FBS, 15.4 µM
[33] = RPMI 5 mM glucose + 10% dialyzed FBS, 46.1 µM

Row | SMILES | cell viability [1] | cell viability [2] | cell viability [3] | cell viability [4] | cell viability [5] | cell viability [6] | cell viability [7] | cell viability [8] | cell viability [9] | cell viability [10] | cell viability [11] | cell viability [12] | cell viability [13] | cell viability [14] | cell viability [15] | cell viability [16] | cell viability [17] | cell viability [18] | cell viability [19] | cell viability [20] | cell viability [21] | cell viability [22] | cell viability [23] | cell viability [24] | cell viability [25] | cell viability [26] | cell viability [27] | cell viability [28] | cell viability [29] | cell viability [30] | cell viability [31] | cell viability [32] | cell viability [33]
1 | Cc1nc(N)sc1-c1ccnc(Nc2ccc(N3CCOCC3)cc2)n1 | 88.8% | 98.7% | 102% | 102% | 107% | 107% | 85.5% | 83.8% | 30.5% | 26.2% | 31.3% | 78.7% | 111% | 124% | 106% | 130% | 107% | 94.9% | 87.1% | 19.1% | 14.2% | 18.1% | 81% | 95.6% | 114% | 118% | 112% | 102% | 81% | 73.7% | 22.4% | 18.4% | 17.2%
2 | CC[P](CC)(CC)=[Au][S][C@@H]1O[C@H](COC(C)=O)[C@@H](OC(C)=O)[C@H](OC(C)=O)[C@H]1OC(C)=O |  |  |  |  |  |  |  |  |  |  |  | 106% | 120% | 117% | 122% | 115% | 108% | 89.8% | 5.13% | 4.94% | 3.95% | 3.2% | 111% | 106% | 93.8% | 108% | 106% | 113% | 103% | 5.2% | 5.93% | 4.45% | 2.9%
3 | N[C@@H](Cc1ccc(N(CCCl)CCCl)cc1)C(=O)O | 118% | 124% | 125% | 128% | 126% | 116% | 119% | 103% | 48.6% | 18.3% | 11.8% |  |  |  |  |  |  |  |  |  |  |  | 114% | 115% | 120% | 126% | 134% | 123% | 107% | 90.7% | 34.4% | 13.7% | 5.98%
4 | Oc1ccc(-c2nc(-c3ccncc3)c(-c3ccc(F)cc3)[nH]2)cc1 | 83.4% | 90.6% | 102% | 107% | 104% | 69.1% | 42.4% | 45.4% | 7.43% | 2.46% | 0.872% | 105% | 86.9% | 89.5% | 93.6% | 76.1% | 54.7% | 34.9% | 30.3% | 1.32% | 0.723% | 0.55% | 114% | 99.9% | 104% | 98.8% | 83% | 48.4% | 41.3% | 32.8% | 5.58% | 1.19% | 0.981%
5 | O=C1N\N=C(\C[C@@H]2CCN(C2)C(=O)C3CC3)N1C4=CC=C(C=C4)C5=CC=C6OC=CC6=C5 | 77.5% | 76.9% | 80.2% | 85.4% | 70.8% | 61.7% | 78.5% | 71.3% | 77.8% | 37.1% | 45.6% | 109% | 116% | 120% | 107% | 113% | 76.7% | 110% | 97.1% | 125% | 64.3% | 51.9% | 73.3% | 65% | 79.9% | 84.3% | 81.5% | 56.5% | 80.1% | 82.3% | 96.6% | 46.5% | 31.7%
6 | COC(=O)Nc1nc2cc(Sc3ccccc3)ccc2[nH]1 | 107% | 108% | 119% | 115% | 124% | 130% | 100% | 102% | 22.6% | 24.1% | 24.2% | 119% | 121% | 131% | 129% | 113% | 114% | 93.2% | 91.6% | 15.3% | 18.6% | 18.2% |  |  |  |  |  |  |  |  |  |  | 
7 | CN1\C(=C(O)/C2=C(C=C(Cl)S2)[S+]1([O-])=O)C(=O)NC3=NC=CC=C3 | 124% | 130% | 119% | 24.6% | 127% | 114% | 114% | 114% | 112% | 101% | 106% | 91.4% | 88% | 82.7% | 14.3% | 88.3% | 88.1% | 68.8% | 85.4% | 99.6% | 87.5% | 74.8% | 125% | 123% | 118% | 25.3% | 123% | 134% | 104% | 102% | 103% | 111% | 87.7%
8 | OC[C@H]1O[C@H](C[C@@H]1O)N2\C=C(\I)C(=O)NC2=O | 86.1% | 99.2% | 97.3% | 93% | 99% | 113% | 117% | 88.2% | 95.3% | 74.7% | 69.6% | 97.1% | 110% | 104% | 107% | 102% | 113% | 101% | 110% | 101% | 77.8% | 66.5% | 90.9% | 92.5% | 92% | 99.9% | 98.4% | 109% | 84.3% | 64.3% | 60% | 49.2% | 39.4%
9 | CN(C)[C@H]\1[C@@H]2[C@@H](O)[C@H]3\C(=C(O)/[C@]2(O)C(=O)\C(=C1O)C(N)=O)C(=O)C4=C(C=CC=C4O)[C@@]3(C)O | 100% | 95.3% | 99.4% | 98.8% | 98.9% | 106% | 105% | 103% | 117% | 106% | 95.7% | 102% | 123% | 121% | 125% | 115% | 114% | 129% | 121% | 104% | 133% | 118% | 113% | 121% | 121% | 118% | 125% | 124% | 115% | 114% | 122% | 118% | 118%
10 | N#C[C@@H]1C[C@@H]2C[C@@H]2N1C(=O)[C@@H](N)C12CC3CC(CC(O)(C3)C1)C2 |  |  |  |  |  |  |  |  |  |  |  | 113% | 109% | 105% | 104% | 108% | 96.6% | 102% | 87.5% | 79% | 82.2% | 79.4% | 118% | 115% | 110% | 110% | 111% | 110% | 115% | 108% | 108% | 117% | 94.5%
11 | O=C(O)c1nn(Cc2ccc(Cl)cc2Cl)c2ccccc12 | 93.5% | 90.1% | 95.5% | 96.3% | 86.5% | 54.8% | 68.7% | 92.3% | 84.7% | 76.2% | 54.7% | 124% | 123% | 132% | 130% | 93.3% | 83.6% | 86.2% | 135% | 95.2% | 94.7% | 81% | 96.1% | 89.9% | 89.1% | 77.2% | 76.3% | 46.9% | 69% | 97.5% | 70.1% | 92.7% | 59.6%
12 | CNC(=O)c1ccccc1Sc1ccc2c(/C=C/c3ccccn3)n[nH]c2c1 | 119% | 109% | 119% | 116% | 120% | 118% | 114% | 115% | 73.4% | 33.5% | 30.5% |  |  |  |  |  |  |  |  |  |  |  |  |  |  |  |  |  |  |  |  |  | 
13 | COC1=CC=CC(=C1/C2=N/CC3=C(N=C(NC4=CC(=C(C=C4)C(O)=O)OC)N=C3)C5=CC=C(Cl)C=C25)F | 83.2% | 75.2% | 93.3% | 79.7% | 65.7% | 26% | 25.3% | 33.1% | 28.9% | 25.8% | 23.4% | 91.7% | 84.3% | 85.4% | 85.4% | 68.7% | 16.6% | 18.1% | 16.5% | 18.9% | 14% | 16.4% | 75.5% | 80.7% | 82.2% | 88.8% | 54% | 20.2% | 21.1% | 24% | 23.9% | 15.7% | 17.8%
